Experimental data taken from US20260125351A1, “COMPOUND FOR INDUCING EXPRESSION OF ANTI-AGING GENE KLOTHO AND USE THEREOF” (KLOTHO SCIENCES, priority 2019, published 2026).

What was measured:
[1] = tested on: Human renal proximal tubule epithelial cells (RPTECs); test: Inhibition of cellular senescence, senescence β-galactosidase staining; format: cell-based
Method: Human renal proximal tubule epithelial cells (RPTECs), which are renal tubular epithelial cells, were purchased from Lonza, and as a culture medium, a REGM kit supplied by the same company was also used. Cells were cultured in a 37° C. incubator under 5% CO2 conditions. When the cells reached 80% saturation, the cells were treated with trypsin, transferred to a new culture dish, and subcultured. A compound was attached to the medium such that the final concentration was 2.5 μM, and a constant concentration was maintained by adding the compound thereto during each passage. […] As for the cells inducing senescence, cells subcultured 17 times (#17) in total were used.
“Senescence β-galactosidase staining kit” from Cell Signaling Technology, Inc. was used to confirm the degree of senescence of cells. On the day of the experiment, a staining solution was added to the cells, and the stained cells were confirmed 8 hours later. The number of stained cells was confirmed and expressed as a ratio among the total number of cells observed under a 200-fold microscope, and the number of stained cells at three different locations per sample was counted and averaged. As the senescence of the cells progresses, the expression of the enzyme β-galactosidase increases, and therefore the stained cells may be determined as more senescent cells than the non-stained cells.

[2] = tested on: human kidney-2 (HK2) cells; test: Toxicity test, EZ-Cytox kit; format: cell-based; conditions: 12.5 μM or 25 μM, 24 hours
Method: Cultured human kidney-2 (HK2) cells were treated with Comparative Example 1, Example 2 and Examples 9 to 10 at a concentration of 25 μM or 12.5 μM, and after 24 hours, cytotoxicity was measured using an EZ-Cytox kit.

[3] = tested on: spontaneous hypertensive rat (SHR); test: Effect of reducing hypertension in spontaneous hypertensive rat; format: in vivo; conditions: SHR rats
Method: A 6-week-old rat male WKY/lzm was used as a normal control, and a 6-week-old rat male SHR/lzm was used as an experimental group in which hypertension was induced. All animals were purchased from the Central Laboratory Animal, and experiments were conducted at the rearing facility in a re-entry area within the Experimental Animal Center of the Osong Medical Innovation Foundation. The […] were quarantined and acclimatized for 7 days after receipt, and the health of the animals was observed during this period.
Group separation was performed on the end day of instrument acclimatization (group separation day) among animals having no general symptoms. […]
• (1) A test material and a positive control material were dissolved in an excipient in a liquid amount of 20 mIJkg according to the corresponding concentration. • (2) After quarantine and acclimatization, the excipient, the test material, and the positive control material were administered after group separation based on the blood pressure and body weight of animals. • (3) All administration groups were administered orally 7 times/week for 8 weeks using a 3 mL syringe with a liquid amount of 20 mL/kg based on the body weight measured once a week. […]
On days 36 and 64 after administration of the drug, blood pressure was measured by placing the animals in a blood pressure measuring frame and allowing the tails to come out. […]

klotho (KL) gene [4] = test: Quantitative evaluation of klotho (KL) gene expression level using general PCR in RPTEC cells; format: cell-based, human; parameters: dose or concentration left out as unconfirmed; conditions: general PCR (FIG. 5)
Method: After RPTEC cells, which are epithelial cells of the proximal tubule of the human kidneys, were each treated with the compounds of Examples 7 to 10 at […] for 6 hours. RNA was extracted from the cells, and cDNA was prepared from the extracted RNA using a Superscript II kit from Thermo Fisher Scientific, Inc., and then general PCR was performed.
Information on the primers used in the experiment is as follows.
The DNA amplified by PCR was confirmed by staining with ethidium bromide after electrophoresis on an agarose gel, and the amounts of DNA in the band were quantitatively compared using the SPEedyQuant program, and are illustrated in FIG. 5.

klotho protein = test: Klotho protein expression level in cisplatin-treated HK-2 cells; format: cell-based, human; conditions: cisplatin (20 μM) disease model, KS1 3 μM, after 24 hours (FIG. 7B)
Method: As in the protocol in FIG. 7A, a disease model was made by treating HK-2 cells (human renal cells) with cisplatin (20 μM), and then treated with a KS1 compound (Example 10) (3 μM). After 24 hours, the expression degree of the klotho protein was confirmed by obtaining the cells.

[5] = tested on: unilateral ureter obstruction model; test: Unilateral ureter obstruction (UUO) model; format: in vivo; conditions: UUO mice, 20 mg/kg/day into the abdominal cavity
Method: In a unilateral ureter obstruction model, 5-week-old male […] mice were used. After the right ureter was tied with a thread to create a unilateral ureter obstruction model, the KS1 compound (20 mg/kg/day) was injected into the abdominal cavity daily starting 24 hours later. After that, samples were collected by sacrificing the mice on days 7 and 14 and tested (FIG. 8A).

[6] = tested on: promoter of the human klotho gene; test: Luciferase expression experiment, reporter gene pHKP-luc (promoter up to -2.1 kb upstream) in RPTECs; format: cell-based
Method: (§1) In order to evaluate whether the klotho gene was expressed by the evaluation of luciferase activity, human renal proximal tubule epithelial cells (RPTECs) (ATCC CRL-4031), which are epithelial cells of the proximal tubule of the human kidneys, were purchased from Lonza, USA and used.
(§2) For culturing, a Renal Epithelial Growth Medium (REGM™) Bullet kit, also manufactured by the same Lonza company, was used, and the cells were cultured under conditions of 37° C. and 5% CO2. As a plasmid for luciferase expression, a plasmid in which the promoter site of a human KL (klotho) gene was disposed to regulate the expression of a firefly luciferase gene was used.
(§3) The plasmid was incorporated into cells using an X-treme GENE transfection reagent from Roche. The activity of luciferase expressed in cells was measured using a Dual-Luciferase reporter assay system manufactured by Promega. After the cultured cells were treated with each compound at an indicated concentration for 24 hours, the activity of luciferase was measured. It is indirectly shown that the expression of the klotho gene may be increased when the activity of luciferase is high.
The results of confirming the expression of a reporter gene by treating RPTECs, which are epithelial cells of the proximal tubule of the human kidneys, with Examples 1 to 6 at concentrations of 0.5, 1 and 5 μM and Comparative Example 1 at a concentration of 5 μM and using a reporter gene (pHKP-luc) including a promoter included up to −2.1 kb upstream of the human klotho gene are illustrated in FIGS. 2 and 3.

[7] = tested on: promoter of the human klotho gene; test: Luciferase expression experiment, klotho promoter reporter (1.7 kbp or 240 bp) in RPTEC cells; format: cell-based; conditions: 5 μM, 24 hours, reporter with klotho promoter to 1.7 kbp or 240 bp, among Comparative Examples 1 to 4 (FIG. 1)
Method: as §1, §2
as §3, with “high. […]” for “high.”

klotho (KL) gene [8] = test: Quantitative evaluation of klotho (KL) gene expression level using real-time PCR in RPTEC cells; format: cell-based, human; conditions: RPTEC cells treated for 6 hours; real-time PCR (FIG. 4)
Method: For RNA extraction from RPTEC cells, which are epithelial cells of the proximal tubule of the human kidneys, treated with the compounds of Comparative Example 1 and Examples 1 and 2 for 6 hours, an RNeasy kit from Qiagen Inc. was used. The results of preparing cDNA from extracted RNA using a Superscript II kit from Thermo Fisher Scientific. Inc. and performing the quantitative evaluation using Taqman Gene Expression assays from Applied Biosystems as a klotho (KL) gene-specific kit are illustrated in FIG. 4.

[9] = RPTECs, Examples at 0.5, 1 and 5 μM, Comparative Example 1 at 5 μM, pHKP-luc (FIG. 2)

Fc1ccc(Nc2nc3ccccc3o2)cc1F [Example 10, N-(3,4-difluorophenyl)benzo[d]oxazol-2-amine]
cells stained (senescence β-galactosidase) ([1]; RPTECs subcultured 17 times, 2.5 μM in medium, DMSO about 90% (FIG. 15)): about 70% | decrease in degree of senescence compared to DMSO ([1]; RPTECs, 17 passages, 2.5 μM): about 20% | improvement of toxicity compared to Comparative Example 1 [2]: ≥ 20% | cytotoxicity ([2]; EZ-Cytox (FIG. 6)): least toxicity | blood pressure reduction effect on co-administration with losartan ([3]; KS1 co-administered with losartan, versus each drug administered independently (FIG. 14)): better blood pressure reduction effect | systolic pressure ([3]; oral 20 mg/kg/day for 8 weeks, measured days 36 and 64 (FIG. 14)): remarkably reduced | expression level of the klotho (KL) gene relative to Comparative Example 1 (klotho (KL) gene [4]): about 10 times | expression of the klotho protein (klotho protein): increased | renal hypertrophy (kidney size) ([5]; days 7 and 14 (FIG. 8B)): no difference in size | nuclear and cytoplasmic changes, H&E staining ([5]; one-week and two-week samples (FIG. 9)): large reduction in tissue destruction | klotho protein expression ([5]; one-week sample (FIG. 12)): increased | fibrosis progression, Sirius Red staining ([5]; versus UUO model not treated with KS1 (FIG. 10)): fibrosis occurred less | degree of apoptosis, TUNEL staining ([5]; versus UUO model not treated with KS1 (FIG. 11)): remarkably reduced | expression level of MMP-9 protein (inflammation marker) ([5]; week 1 and week 2 (FIG. 13)): remarkably reduced

O=C(Nc1nc2ccccc2o1)c1ccc([N+](=O)[O-])cc1Cl [Example 1, N-(benzo[d]oxazol-2-yl)-2-chloro-4-nitrobenzamide]
expression of the reporter gene [6, 9]: at a level similar to that of Comparative Example 1

O=C(Nc1ccccc1Cl)c1c[nH]c2ccccc12 [Comparative Example 1, N-(2-chlorophenyl)-1H-indole-3-carboxamide]
luciferase activity [7]: highest

Cc1ccc2oc(Nc3ccc(Cl)c(Cl)c3)nc2c1 [Example 2]
expression of the reporter gene ([6]; RPTEC cells, 5 μM, pHKP-luc (FIG. 3)): at a level similar to that of Comparative Example 1 | expression of the reporter gene [6, 9]: at a level similar to that of Comparative Example 1 | mRNA expression level of the klotho (KL) gene (klotho (KL) gene [8]): at a level similar to that of Comparative Example 1

N.N.[Cl][Pt][Cl] [cisplatin, reference compound]
expression of the klotho protein (klotho protein): decreased
